From PubChem BioAssay (NCI)
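Tested at 5 concentrations; 48 h exposure; 96-well plates; endpoints linearly interpolated, else capped at highest concentration. GI50 = concentration required for 50% inhibition of growth. TGI is the concentration that stops growth completely.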

Tests used:
Assay in all cases: NCI tumour cell line growth inhibition, 48 h
NCI-H460 lung = test system: NCI-H460 lung
NCI-H522 lung = test system: NCI-H522 lung
NCI/ADR-RES ovarian = test system: NCI/ADR-RES ovarian
OVCAR-3 ovarian = test system: OVCAR-3 ovarian
OVCAR-4 ovarian = test system: OVCAR-4 ovarian
OVCAR-5 ovarian = test system: OVCAR-5 ovarian
OVCAR-8 ovarian = test system: OVCAR-8 ovarian
PC-3 prostate = test system: PC-3 prostate
RPMI-8226 leukemia = test system: RPMI-8226 leukemia
RXF 393 renal = test system: RXF 393 renal
SF-268 CNS = test system: SF-268 CNS
SF-295 CNS = test system: SF-295 CNS
SF-539 CNS = test system: SF-539 CNS
SK-MEL-2 melanoma = test system: SK-MEL-2 melanoma
SK-MEL-28 melanoma = test system: SK-MEL-28 melanoma
SK-MEL-5 melanoma = test system: SK-MEL-5 melanoma
SK-OV-3 ovarian = test system: SK-OV-3 ovarian
SN12C renal = test system: SN12C renal
SNB-19 CNS = test system: SNB-19 CNS
SNB-75 CNS = test system: SNB-75 CNS
SR leukemia = test system: SR leukemia
SW-620 colon = test system: SW-620 colon
T-47D breast = test system: T-47D breast
TK-10 renal = test system: TK-10 renal
U251 CNS = test system: U251 CNS
UACC-257 melanoma = test system: UACC-257 melanoma
UACC-62 melanoma = test system: UACC-62 melanoma
UO-31 renal = test system: UO-31 renal

Work on `CCCCCCC/C(=N\N=C(N)N)c1ccc(O)cc1` yielded a GI50 (NCI-H460 lung) of 1.82 µM, a TGI (NCI-H460 lung) of 3.68 µM and a GI50 (NCI-H522 lung) of 1.62 µM. For the same compound, the TGI (NCI-H522 lung) was 3.48 µM, the GI50 (NCI/ADR-RES ovarian) was 10 µM and the TGI (NCI/ADR-RES ovarian) was 23.2 µM. For the same compound, the GI50 (OVCAR-3 ovarian) was 2.23 µM, the TGI (OVCAR-3 ovarian) was 7.84 µM and the GI50 (OVCAR-4 ovarian) was 1.65 µM. The TGI (OVCAR-4 ovarian) was 12.3 µM, the GI50 (OVCAR-5 ovarian) was 3.83 µM and the TGI (OVCAR-5 ovarian) was 15.3 µM. It also gave a GI50 (OVCAR-8 ovarian) of 2.12 µM, a TGI (OVCAR-8 ovarian) of 5.26 µM and a GI50 (PC-3 prostate) of 2.17 µM. The TGI (PC-3 prostate) was 8.92 µM, the GI50 (RPMI-8226 leukemia) was 1.71 µM and the TGI (RPMI-8226 leukemia) was 4.3 µM. The GI50 (RXF 393 renal) was 1.94 µM, the TGI (RXF 393 renal) was 5.16 µM and the GI50 (SF-268 CNS) was 1.77 µM. For the same compound, the TGI (SF-268 CNS) was 5.31 µM, the GI50 (SF-295 CNS) was 1.77 µM and the TGI (SF-295 CNS) was 4.46 µM. For the same compound, the GI50 (SF-539 CNS) was 1.91 µM, the TGI (SF-539 CNS) was 4.4 µM and the GI50 (SK-MEL-2 melanoma) was 1.96 µM. For the same compound, the TGI (SK-MEL-2 melanoma) was 3.85 µM, the GI50 (SK-MEL-28 melanoma) was 1.73 µM and the TGI (SK-MEL-28 melanoma) was 3.28 µM. For the same compound, the GI50 (SK-MEL-5 melanoma) was 1.5 µM, the TGI (SK-MEL-5 melanoma) was 2.82 µM and the GI50 (SK-OV-3 ovarian) was 3.04 µM. It also gave a TGI (SK-OV-3 ovarian) of 11.2 µM, a GI50 (SN12C renal) of 2.76 µM and a TGI (SN12C renal) of 11.8 µM. It also gave a GI50 (SNB-19 CNS) of 2.13 µM, a TGI (SNB-19 CNS) of 10.6 µM and a GI50 (SNB-75 CNS) of 1.58 µM. For the same compound, the TGI (SNB-75 CNS) was 5.41 µM, the GI50 (SR leukemia) was 1.67 µM and the TGI (SR leukemia) was 3.96 µM. The GI50 (SW-620 colon) was 1.65 µM, the TGI (SW-620 colon) was 3.35 µM and the GI50 (T-47D breast) was 1.87 µM. The TGI (T-47D breast) was 4.89 µM, the GI50 (TK-10 renal) was 5.53 µM and the TGI (TK-10 renal) was 18 µM. It also gave a GI50 (U251 CNS) of 1.54 µM, a TGI (U251 CNS) of 2.87 µM and a GI50 (UACC-257 melanoma) of 1.76 µM. For the same compound, the TGI (UACC-257 melanoma) was 3.81 µM, the GI50 (UACC-62 melanoma) was 1.55 µM and the TGI (UACC-62 melanoma) was 3.26 µM. For the same compound, the GI50 (UO-31 renal) was 2.38 µM and the TGI (UO-31 renal) was 12.1 µM.
